According to patent publication US4098823A, “Monospiroalkyl derivatives of prostaglandins” (Miles Laboratories, Inc., priority 1977, dated 1978):
Entries after “also recorded” stand apart in the source; their conditions may differ. Values belong to the compound of their own block, whether it stands above or below them.

How the values were obtained:
[1] = test system: Human Platelet Aggregation; conditions: in vitro; cited from earlier work
[2] = test system: steroidogenesis in the adrenal glands; conditions: hypophysectomized rats; cited from earlier work
adrenergic nerve endings = conditions: guinea pig; cited from earlier work
[3] = test system: smooth muscle of the vas deferens; conditions: mammalian male reproductive system; cited from earlier work
[4] = test system: female reproductive system; conditions: in vivo; cited from earlier work
[5] = test system: motor pathways in the central nervous system; conditions: cited from earlier work
rabbit aortic strip = experiment: Cascade Assay, aorta (smooth muscle stimulant effect); type: cell-based; conditions: superfused, 50% of maximum (PGA2)
Outline: (§1)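 Rabbit aortic strip (4 g tension), rat stomach fundus, rat colon and chick rectum (1 g) in cascade, superfused at 10 ml/min with 37° C Krebs containing cholinergic, adrenergic, serotonin and histamine blockers. Doses of 0.001–100,000 ng dripped on at 10–20 min intervals; maximal tension rise gave graphical ED50 per tissue.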

rat stomach fundus = experiment: Cascade Assay, stomach (smooth muscle stimulant effect); type: cell-based; conditions: superfused, 50% of maximum (PGE1)
Outline: as §1

chick rectum = experiment: Cascade Assay, rectum (smooth muscle stimulant effect); type: cell-based; conditions: superfused, 50% of maximum (PGE1)
Outline: as §1

[6] = test system: Blood Pressure and Heart Rate; experiment: Effects on Blood Pressure and Heart Rate in the Anesthetized Cat; type: in vivo; conditions: intravenous, 0.01 to 10.0 mcg/kg, scored only on hypotension
Outline: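 Cats of either sex anesthetized with pentobarbital sodium (35 mg/kg i.v.) plus barbital sodium (100 mg/kg i.v.), femoral arterial pressure and ECG-driven heart rate recorded. Compound given i.v. at one-log increasing doses, 0.01–10.0 mcg/kg, every 10 min. ED50 mmHg (dose lowering blood pressure by 50 mmHg) derived graphically from hypotension.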

Guinea Pig Trachea = experiment: Effects on the Guinea Pig Trachea in Vitro; type: cell-based; conditions: 0.01 to 10.0 mcg/ml, versus PGE1 0.1 mcg/ml, R = relaxation, C = contraction
Method: A male guinea pig weighing 200-500 g was killed by a blow on the head. A 20 mm length of the trachea was dissected from the animal, transferred to a petri dish containing Krebs' solution (aerated with 95% O2 and 5% CO2 at 37° C), and cut longitudinally opposite the tracheal muscle. The tissue was then cut transversely three quarters of the distance across, a second cut in the opposite direction (again three quarters of the distance across the tissue) was made and the procedure was continued for the whole tissue. The ends of the trachea were pulled to form a zig-zag shaped strip. The tracheal strip used in the experiment was approximately 30 mm when extended under 0.25-0.5 g load in the tissue bath. Cotton thread was tied to one end of the tissue, and linen thread to the other. It was attached via the linen thread to a glass hook in a 5 ml isolated tissue bath containing Krebs' solution (37° C, aerated with a mixture of 95 % O2 and 5% CO2). […]
A test compound was then added to the same two strips at bath concentrations of 0.01, 0.1, 1.0, and 10.0 mcg/ml and the effects of the compound were recorded. […] The mean of the effects of the test compound on the two strips was then calculated for each concentration, and, based on the resulting values, an activity value was assigned as follows: […]

Rat Uterus = experiment: Effects on the Rat Uterus in Vitro; type: cell-based; conditions: Rattus norvegicus; in vitro, 29° C; response 50% that of carbachol; read-out: Test F Rat Uterus, Activity Value (ED50)
Outline: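 Uterine segments came from rats (140–160 g) given 1 mg/kg diethylstilbestrol s.c. 18 h earlier. Tissue was held isometrically at 1 g tension in de Jalon solution at 29 °C, gassed with 95% O2/5% CO2. Compound was tested at 0.001–10 mcg/ml in log steps, every 10 min with washes, and ED50 was derived graphically as 50% of the second carbachol (1 mcg/ml) response.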

Gastric Secretion = experiment: Effects on Gastric Secretion in the Rat; type: in vivo; conditions: pylorus-ligated rat, subcutaneous, 2 x 1.5 mg/kg (total 3.0 mg/kg), 4 hours
Outline: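 Rats (150-200 g, groups of six) fasted 48 h, pylorus ligated under ether. Compounds given s.c. in phosphate buffer pH 7.38 at 1.5 mg/kg immediately post-surgery and 2 h later (total 3.0 mg/kg). At 4 h, gastric volume and total acid (titration with 0.1 N NaOH, mEq) compared with vehicle controls by t-test.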

rat colon = experiment: Cascade Assay, colon (smooth muscle stimulant effect); type: cell-based; conditions: superfused, 50% of maximum (PGF2α)
Outline: as §1

SMILES: CCCCC[C@H](O)/C=C/[C@H]1[C@H](O)CC(=O)[C@@H]1CCCCCCC(=O)O [PGE1, prostaglandin E1]
inhibition of aggregation of human platelets, in words (natural prostaglandin) [1]: displays a similar activity | steroidogenesis in the adrenal glands [2]: stimulate steroidogenesis in the adrenal glands | transmitter release from adrenergic nerve endings (adrenergic nerve endings): inhibit transmitter release from adrenergic nerve endings | contraction of smooth muscle of the vas deferens [3]: contracts the smooth muscle of the vas deferens

SMILES: CCCCC[C@H](O)/C=C/[C@@H]1[C@@H](C/C=C\CCCC(=O)O)[C@@H](O)C[C@H]1O [PGF2α]
effect in the female reproductive system (fertility, labor, abortion) [4]: contragestational effects; also recorded: induces spontaneous abortions in early pregnancy | transmission in motor pathways [5]: facilitates transmission in motor pathways

SMILES: COC(=O)CCCCCC[C@H]1C(=O)C=C[C@H]1/C=C/[C@@H](O)C1CC2(CCC2)C1 [TR-4126, Methyl 7-{5-oxo-2R-[3S-hydroxy-3-(spiro[3.3]hept-2-yl)-1E-propenyl]cyclopent-3-en-1R-yl}heptanoate]
Test E Cascade Assay, Aorta, Activity Value (ED50) (rabbit aortic strip): 0 (>10000) | Test E Cascade Assay, Stomach, Activity Value (ED50) (rat stomach fundus): 0 (>10000) | Test E Cascade Assay, Rectum, Activity Value (ED50) (chick rectum): 0 (>10000) | Test D Activity Value (ED50 mmHg, decrease in blood pressure) [6]: 0 (>10.0) | Test G Guinea Pig Trachea, Activity Value (Guinea Pig Trachea): Cl

EC50 (Rat Uterus): > 10 mg/L
SMILES: O=C1C[C@@H](O)[C@H](/C=C/[C@@H](O)C2CC3(CCC3)C2)[C@H]1CCCCCCCO [TR-4714, 7-{3R-hydroxy-5-oxo-2R-[3S-hydroxy-3-(spiro[3.3]hept-2-yl)-1E-propenyl]cyclopent-1R-yl}heptan-1-ol]
Test E Cascade Assay, Aorta, Activity Value (ED50) (rabbit aortic strip): 0 (>10000) | Test E Cascade Assay, Stomach, Activity Value (ED50) (rat stomach fundus): 0 (>10000) | Test B Activity Value (% decrease in acidity, inhibition of gastric secretion) (Gastric Secretion): 0 (<26) | Test E Cascade Assay, Colon, Activity Value (ED50) (rat colon): 0 (>10000) | Test E Cascade Assay, Rectum, Activity Value (ED50) (chick rectum): 0 (>10000) | Test G Guinea Pig Trachea, Activity Value (Guinea Pig Trachea): Cl
